# Tests used:
# [1] = target: T1, kinase domain protein of RC kinase (Homo sapiens, UniProt Q56UN5); assay: Enzymatic assay for kinase inhibitory activity (Crebtide substrate, LANCE readout), kinase domain protein; assay type: biochemical; details: test compound 1 μM, ATP 1 μM, Crebtide 50 nM
# T1 sequence (Q56UN5 1061-1324 limits assumed): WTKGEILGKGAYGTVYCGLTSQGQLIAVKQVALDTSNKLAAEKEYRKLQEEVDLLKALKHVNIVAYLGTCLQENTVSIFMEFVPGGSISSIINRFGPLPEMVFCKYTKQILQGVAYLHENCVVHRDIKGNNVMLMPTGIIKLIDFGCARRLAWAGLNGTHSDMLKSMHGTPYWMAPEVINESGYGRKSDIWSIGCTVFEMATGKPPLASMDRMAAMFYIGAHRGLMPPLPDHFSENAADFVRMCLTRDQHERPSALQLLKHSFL
# Procedure: Solutions of a test compound, Crebtide (a substrate), a kinase, and ATP were prepared using 1×MAPK Buffer (50 mM HEPES, 1 mM EGTA, […], 10 mM MgCl2, 2 mM DTT, and 0.01% Tween 20).
# To each well, the test compound (1 μL) was first added (in duplicate) to reach a final concentration of 1 μM or 1×IC50 of the compound. The kinase (5 μL) was then added to each well to reach a final concentration of […] for the kinase domain or […] for the full-length domain. Each plate included a positive and negative controls in duplicate wells. Crebtide (2.5 μL) was then added to each well in duplicate to reach a final concentration of 50 nM. If the full-length kinase was used, the plates were incubated for 45 min at room temperature before proceeding further. ATP (2.5 μL) was added to each well to reach a final concentration of 1 μM for the kinase domain and 3 μM for the full-length.
# After the addition of ATP, the plates were incubated for 45 min at room temperature. During the incubation, an EDTA solution (40 mM) and anti-Crebtide ([…]) were prepared. Additionally, a detection buffer stock solution was diluted ten fold before use.
# After the incubation, the anti-Crebtide (5 μL) and EDTA (5 μL) were added to each well to reach their final concentrations of […] and 10 mM, respectively. The plates were allowed to develop at room temperature for 45 min. The plates were then read at 665 nm and 615 nm using Perkin Elmer Lance machine.
# The biological results of inhibition of the kinase domain protein of RC kinase are summarized in Tables 2 and 3, wherein A represents at least 50% inhibition of the RC kinase activity at 1 μM; B represents no greater than 50% but at least 20% inhibition of the RC kinase activity at 1 μM; C represents no greater than 20% but at least 5% inhibition of the RC kinase activity at 1 μM; and D represents no greater than 5% inhibition of the RC kinase activity at 1 μM.
Structure (SMILES),inhibition at 1 µM [1] [%],other results
"N#Cc1c(Nc2cccc(Cl)c2)n[nH]c1NCc1ccc(Oc2nccc(C(F)(F)F)n2)cc1 [Compound C1, 3-((3-chlorophenyl)amino)-5-((4-((4-(trifluoromethyl)pyrimidin-2-yl)oxy)benzyl)amino)-1H-pyrazole-4-carbonitrile]",5 to 20,
N#Cc1c(Nc2cccc(Cl)c2)n[nH]c1NCc1ccc(Oc2ccc(C(F)(F)F)cn2)cc1 [Compound C2],,Activity (inhibition of the RC kinase activity at 1 μM) [1]: B (no greater than 50% but at least 20% inhibition of the RC kinase activity at 1 μM); melting point: 62 to 72 °C
Cn1nc(CSc2ccccc2)c(CNc2[nH]nc(Nc3cccc(Cl)c3)c2C#N)c1Cl [Compound C3],5 to 20,melting point: 100 to 104 °C
N#Cc1c(Nc2cccc(Cl)c2)n[nH]c1NCc1cccn1S(=O)(=O)c1ccccc1 [Compound C4],5 to 20,
"N#Cc1c(Nc2cccc(Cl)c2)n[nH]c1NCc1ccc(S(F)(F)(F)(F)F)cc1 [Compound C5, 3-((3-chlorophenyl)amino)-5-((4-pentafluorothiobenzyl)amino)-1H-pyrazole-4-carbonitrile]",5 to 20,
N#Cc1c(Nc2cccc(Cl)c2)n[nH]c1NCc1ccc(OCc2ccc(F)cc2)cc1 [Compound C6],20 to 50,
N#Cc1c(Nc2cccc(Cl)c2)n[nH]c1NCc1ccc(-n2cnc3ccccc32)cc1 [Compound C7],5 to 20,
N#Cc1c(Nc2cccc(Cl)c2)n[nH]c1NCc1c[nH]c2c(F)c(F)c(F)c(F)c12 [Compound C8],5 to 20,
Cn1nc(C(F)(F)F)c(CNc2[nH]nc(Nc3cccc(Cl)c3)c2C#N)c1Cl [Compound C9],≤ 5,
N#Cc1c(Nc2cccc(Cl)c2)n[nH]c1NCc1ccc(OC(F)(F)F)c(F)c1 [Compound C10],≤ 5,
N#Cc1c(Nc2cccc(Cl)c2)n[nH]c1NCc1nc(-c2ccccc2)[nH]c1Cl [Compound C11],≤ 5,
N#Cc1c(Nc2cccc(Cl)c2)n[nH]c1NCc1ccc(-c2ccc(Cl)cc2)o1 [Compound C12],≤ 5,
CN1CCN(c2ccc(CNc3[nH]nc(Nc4cccc(Cl)c4)c3C#N)cc2)CC1 [Compound C13],≤ 5,
COc1ccc(C(F)(F)F)cc1CNc1[nH]nc(Nc2cccc(Cl)c2)c1C#N [Compound C14],≤ 5,
N#Cc1c(Nc2cccc(Cl)c2)n[nH]c1NCc1ccc(N2CCOCC2)nc1 [Compound C15],≤ 5,
N#Cc1c(Nc2cccc(Cl)c2)n[nH]c1NCc1ccc(-c2ccccn2)s1 [Compound C16],≤ 5,
"N#Cc1c(Nc2cccc(Cl)c2)n[nH]c1NCc1ccc(OC(F)F)c(O)c1 [Compound C17, 3-((3-chlorophenyl)amino)-5-((4-(difluoromethoxy)-3-hydroxybenzyl)amino)-1H-pyrazole-4-carbonitrile]",≤ 5,
N#Cc1c(Nc2cccc(Cl)c2)n[nH]c1NCc1ccc(-n2cncn2)cc1 [Compound C20],5 to 20,
"N#Cc1c(Nc2cccc(Cl)c2)n[nH]c1NCc1ccc(OCCO)cc1 [Compound C21, 3-((3-chlorophenyl)amino)-5-((4-(2-hydroxyethoxy)benzyl)amino)-1H-pyrazole-4-carbonitrile]",5 to 20,
COc1ccc(CNc2[nH]nc(Nc3cccc(Cl)c3)c2C#N)c(C)c1C [Compound C22],≤ 5,
N#Cc1c(Nc2cccc(Cl)c2)n[nH]c1NCc1c(O)cccc1Cl [Compound C25],20 to 50,
"N#Cc1c(Nc2cccc(Cl)c2)n[nH]c1NCc1cccnc1Cl [Compound C28, 3-((3-chlorophenyl)amino)-5-(((2-chloropyridin-3-yl)methyl)amino)-1H-pyrazole-4-carbonitrile]",≤ 5,
"Cc1cc(F)ccc1CNc1[nH]nc(Nc2cccc(Cl)c2)c1C#N [Compound C29, 3-((3-chlorophenyl)amino)-5-((4-fluoro-2-methylbenzyl)amino)-1H-pyrazole-4-carbonitrile]",5 to 20,
Cc1ccc(CNc2[nH]nc(Nc3cccc(Cl)c3)c2C#N)c(O)c1 [Compound C30],5 to 20,
NC(=O)c1c(Nc2cccc(Cl)c2)n[nH]c1NCc1ccc(Cl)nc1 [Compound D6],5 to 20,
"NC(=O)c1c(Nc2cccc(Cl)c2)n[nH]c1NCc1ccc(Oc2ncccn2)cc1 [Compound D11, 3-((3-chlorophenyl)amino)-5-((4-(pyrimidin-2-yloxy)benzyl)amino)-1H-pyrazole-4-carboxamide]",,Activity (inhibition of the RC kinase activity at 1 μM) [1]: A (at least 50% inhibition of the RC kinase activity at 1 μM)
COc1cccc(C(=O)Nc2ccc(Nc3n[nH]c(NCc4ccc(O)cc4)c3C(N)=O)cc2)c1 [Compound D145],,Activity (inhibition of the RC kinase activity at 1 μM) [1]: A (at least 50% inhibition of the RC kinase activity at 1 μM)
NC(=O)c1c(Nc2ccc(NC(=O)c3ccccc3OC(F)(F)F)cc2)n[nH]c1NCc1ccc(O)cc1 [Compound D147],,Activity (inhibition of the RC kinase activity at 1 μM) [1]: A (at least 50% inhibition of the RC kinase activity at 1 μM)

# Further lines, with some results ahead:
inhibition at 1 µM [1] [%],Structure (SMILES),other results
20 to 50,Cc1cc(CNc2[nH]nc(Nc3cccc(Cl)c3)c2C(N)=O)cc(C)c1O [Compound D8],
20 to 50,"NC(=O)c1c(Nc2cccc(Cl)c2)n[nH]c1NCc1cccn1S(=O)(=O)c1ccccc1 [Compound D18, 3-((3-chlorophenyl)amino)-5-(((1-(phenylsulfonyl)-1H-pyrrol-2-yl)methyl)amino)-1H-pyrazole-4-carboxamide]",
≤ 5,"NC(=O)c1c(Nc2cccc(Cl)c2)n[nH]c1NCc1c[nH]c2c(F)c(F)c(F)c(F)c12 [Compound D22, 3-((3-chlorophenyl)amino)-5-(((4,5,6,7-tetrafluoro-1H-indol-3-yl)methyl)amino)-1H-pyrazole-4-carboxamide]",
5 to 20,COc1cc(OC)c(OC)cc1CNc1[nH]nc(Nc2cccc(Cl)c2)c1C(N)=O [Compound D58],
5 to 20,"NC(=O)c1c(Nc2cccc(Cl)c2)n[nH]c1NCc1ccc([N+](=O)[O-])cc1 [Compound D74, 3-((3-chlorophenyl)amino)-5-((4-nitrobenzyl)amino)-1H-pyrazole-4-carboxamide]",
5 to 20,Cc1cc(C)cc(CNc2[nH]nc(Nc3cccc(Cl)c3)c2C(N)=O)c1 [Compound D78],
≥ 50,"NC(=O)c1c(Nc2ccc(-n3cccn3)cc2)n[nH]c1NCc1ccc(O)cc1 [Compound D79, 3-((4-(1H-pyrazol-1-yl)phenyl)amino)-5-((4-hydroxybenzyl)amino)-1H-pyrazole-4-carboxamide]",
≥ 50,"NC(=O)c1c(Nc2ccc(Cc3ccccc3)cc2)n[nH]c1NCc1ccc(O)cc1 [Compound D83, 3-((4-benzylphenyl)amino)-5-((4-hydroxybenzyl)amino)-1H-pyrazole-4-carboxamide]",
≥ 50,NC(=O)c1c(Nc2ccc(-c3cc[nH]n3)cc2)n[nH]c1NCc1ccc(O)cc1 [Compound D84],
≤ 5,NC(=O)c1c(Nc2cccc(Cl)c2)n[nH]c1NCc1ccc(O)nc1 [Compound D86],
≤ 5,COc1ncc(CNc2[nH]nc(Nc3cccc(Cl)c3)c2C(N)=O)cn1 [Compound D87],
20 to 50,CC1CCN(C2CCN(c3n[nH]c(NCc4ccc(O)cc4)c3C(N)=O)CC2)CC1 [Compound D88],
≥ 50,COc1ccc(C(=O)Nc2ccc(Nc3n[nH]c(NCc4ccc(O)cc4)c3C(N)=O)cc2)cc1OC [Compound D129],
≥ 50,NC(=O)c1c(Nc2ccc(NC(=O)c3cccc(Cl)c3)cc2)n[nH]c1NCc1ccc(O)cc1 [Compound D130],
20 to 50,"NC(=O)c1c(NC2CCCCC2)n[nH]c1NCc1ccc(O)cc1 [Compound D133, 3-(cyclohexylamino)-5-((4-hydroxybenzyl)amino)-1H-pyrazole-4-carboxamide]",
≥ 50,"NC(=O)c1c(Nc2ccc(CN3CCOCC3)cc2)n[nH]c1NCc1ccc(O)cc1 [Compound D134, 5-((4-hydroxybenzyl)amino)-3-((4-(morpholinomethyl)phenyl)amino)-1H-pyrazole-4-carboxamide]",
20 to 50,"Cc1ccc(S(=O)(=O)Nc2ccc(Nc3n[nH]c(NCc4ccc(O)cc4)c3C(N)=O)cc2)cc1 [Compound D136, 5-((4-hydroxybenzyl)amino)-3-((4-(4-methylphenylsulfonamido)phenyl)amino)-1H-pyrazole-4-carboxamide]",
≤ 5,NC(=O)c1c(Nc2cccc(Cl)c2)n[nH]c1NCc1c[nH]nc1-c1ccc(F)cc1 [Compound D166],

# — patent US8916555B2, “3,5-diaminopyrazole kinase inhibitors” (Axikin Pharmaceuticals, Inc., priority 2012, dated 2014)
